Test results taken from US5204351A, “6-fluoro-3,5-dihydroxy carboxylic acids and derivatives thereof” (Hoechst Aktiengesellschaft, priority 1988, dated 1993).

Legend:
[1] = system: cholesterol; details: rats; cited from earlier work
[2] = system: cholesterol biosynthesis (in HEP-G2 cells); assay: Suppression or inhibition of HMG-CoA reductase in cell cultures of HEP-G2 cells: inhibition of cholesterol biosynthesis from 14C-acetate; format: cell-based; details: Homo sapiens, HepG2, monolayers, e.g. 1 hour preincubation, 3 hours with sodium 14C-acetate, Table 2
Protocol: 2. Suppression or inhibition of HMG-CoA reductase in cell cultures of HEP-G2 cells
Monolayers of HEP-G2 cells in the lipoprotein-free nutrient medium were preincubated with appropriate concentrations of the test substances for a defined time (for example 1 hour) and, after addition of the labeled precursor, for example sodium ^14 C-acetate, the incubation was continued (for example for 3 hours). An internal standard (^3 H-cholesterol) was added and then a portion of the cells underwent alkaline hydrolysis. The lipids from the hydrolyzed cells were extracted with chloroform/methanol. After addition of carrier cholesterol to this lipid mixture it was subjected to preparative thin-layer chromatography, the cholesterol band was visualized with iodine vapor and then isolated, and the amount of ^14 C-cholesterol formed from the ^14 C-precursor was determined by scintigraphy. Cell protein was determined in an aliquot of the cells so that it is possible to calculate the amount of ^14 C-cholesterol formed per unit time and per mg of cell protein. The inhibitory effect of the particular test product on the cholesterol biosynthesis by HEP-G2 cell cultures was obtained by comparing this figure with the amount of ^14 C-cholesterol formed per mg of cell protein and unit time in a culture treated in the same way but free of test substance.
Examination of substances for inhibition of cholesterol biosynthesis
in confluent cell cultures (monolayers) of HEP-G2 cells
The method described above was used to measure, for example, the following figures for the inhibition of cholesterol biosynthesis (in HEP-G2 cells) by the compounds according to the invention (the IC50 /mol/liter is that concentration of the compound which brings about 50% inhibition of cholesterol biosynthesis) (Tab. 2).

[3] = biological target: T1, HMG-CoA reductase (Rattus norvegicus, UniProt P51639); assay: HMG CoA reductase activity in enzyme preparations (solubilized enzyme preparations from liver microsomes of cholestyramine-induced rats, 14C-HMG-CoA substrate); format: biochemical; details: solubilized rat liver microsomal enzyme; mean of 3 parallel samples; Table 1; read-out: IC50 for inhibition of HMG-CoA reductase
T1 construct: solubilized enzyme preparations from liver microsomes from rats; from tissue; host or cells: liver microsomes of cholestyramine-induced rats
T1 sequence (P51639 1-887): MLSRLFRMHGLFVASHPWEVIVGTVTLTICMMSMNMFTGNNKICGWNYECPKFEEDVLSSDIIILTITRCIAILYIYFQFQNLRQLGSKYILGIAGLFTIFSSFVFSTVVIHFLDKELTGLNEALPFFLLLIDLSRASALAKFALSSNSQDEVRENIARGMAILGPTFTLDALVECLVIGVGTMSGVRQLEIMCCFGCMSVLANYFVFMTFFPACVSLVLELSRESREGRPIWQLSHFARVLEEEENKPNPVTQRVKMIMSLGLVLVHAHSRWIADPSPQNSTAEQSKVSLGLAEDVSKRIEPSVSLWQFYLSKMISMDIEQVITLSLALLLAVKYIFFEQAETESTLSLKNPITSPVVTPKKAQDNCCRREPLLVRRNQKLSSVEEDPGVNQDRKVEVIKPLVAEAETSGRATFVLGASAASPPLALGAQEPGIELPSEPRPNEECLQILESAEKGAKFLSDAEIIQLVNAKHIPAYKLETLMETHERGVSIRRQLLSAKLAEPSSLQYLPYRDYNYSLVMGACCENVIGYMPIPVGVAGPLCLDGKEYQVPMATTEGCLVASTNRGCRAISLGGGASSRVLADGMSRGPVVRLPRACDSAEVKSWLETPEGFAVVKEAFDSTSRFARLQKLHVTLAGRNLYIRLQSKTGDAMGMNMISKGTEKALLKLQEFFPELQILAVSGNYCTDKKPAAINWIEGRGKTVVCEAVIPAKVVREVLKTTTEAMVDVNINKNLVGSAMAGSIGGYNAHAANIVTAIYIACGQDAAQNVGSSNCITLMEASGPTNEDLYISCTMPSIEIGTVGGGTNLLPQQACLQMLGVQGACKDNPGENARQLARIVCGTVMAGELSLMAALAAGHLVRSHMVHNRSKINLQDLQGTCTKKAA
Protocol: 1. HMG CoA reductase activity in enzyme preparations
The HMG-CoA reductase activity was measured on solubilized enzyme preparations from liver microsomes from rats which, after a changeover in the day/night rhythm, had been induced with cholestyramine (®Cuemid).
The substrate used was (S,R) ^14 C-HMG-CoA, and the concentration of NADPH was maintained constant during the incubation by a regenerating system. ^14 C-Mevalonate was separated from the substrate and other products (e.g. ^14 C-HMG) by column elution, with the elution profile of each individual sample being determined.
Permanent inclusion of ^3 H-mevalonate was dispensed with because the determination was for relative data on the inhibitory effect. In each test series the enzyme-free control, the enzyme-containing normal mixture (=100%) and those with added product, final concentration 10^-5 to 10^-9 M, were treated together. Each individual value was formed as the mean of 3 parallel samples. The significance of the differences between means for product-free and product-containing samples was assessed using the t test.
The method described above was used to measure, for example, the following figures for the inhibition of HMG-CoA reductase by the compounds according to the invention [IC50 /mol/liter means the molar concentration of the compound per liter necessary for 50% inhibition]: […]

SMILES | cholesterol-lowering action [1] | IC50 [2] [nM] | IC50 [3] [nM]
CC(O)(CC(=O)O)CC(=O)O [3-Hydroxy-3-methylglutaric acid] | significant cholesterol-lowering action | – | –
CC(C)c1nc(-c2ccc(F)cc2)nc(-c2ccc(F)cc2)c1/C=C(\F)[C@@H]1C[C@@H](O)CC(=O)O1 [10 a] | – | 19 | 2.9
CC(C)c1nc(-c2ccccc2)cc(-c2ccc(F)cc2)c1/C=C(\F)[C@@H]1C[C@@H](O)CC(=O)O1 [10 b] | – | 4.6 | 9
CC(C)c1nc(-c2ccc(F)cc2)c(/C=C(\F)[C@@H]2C[C@@H](O)CC(=O)O2)c(C(C)C)n1 [10 g] | – | 2.5 | 1.8
CC(C)c1nc(-c2ccc(F)cc2)nc(-c2ccc(F)cc2)c1C=C(F)C(O)CC(O)CC(=O)O (stereo not drawn) [11 a] | – | 18 | –
CC(C)c1nc(-c2ccccc2)cc(-c2ccc(F)cc2)c1/C=C(\F)[C@@H](O)C[C@@H](O)CC(=O)O [11 b] | – | 20 | –
